Test [1] in a line: Inhibition of C5a mediated human eosinophil chemotaxis.
Test [2] is described as follows: Inhibition of PAF mediated human eosinophil chemotaxis.
Test [3] can be described thus: Inhibition of Eotaxin mediated by human eosinophil chemotaxis.

Some results are limits rather than exact numbers.

With `C[C@@H](NC(=O)c1cccnc1Oc1ccc(F)cc1)c1cccs1` [(R)-2-(4-fluorophenoxy)-N-(1-(thiophen-2-yl)ethyl)nicotinamide], the IC50 (usually the point on the concentration scale where inhibition reaches its midpoint) is below 1 nM in “Inhibition of PDE4D”, 1 nM in test [1], 1 nM in test [2] and 3 nM in test [3].

(Values after BindingDB's records for doi:10.1016/j.bmcl.2005.10.026 (Pfizer, 2005).)
